“And” between values parts separate entries of the source, which are not always exact repeats. Identical values can stand only once. Inconclusive results and toxic doses are left out. How the source made its calls: active means survival T/C of 150% or more; inactive means T/C below 125% in these data.
Test system: BDF1 mice, B16 melanoma ip, median survival T/C
Experiment: NCI In Vivo Anticancer Drug Screen. Data for tumor model B16 Melanoma (intraperitoneal) in B6D2F1 (BDF1) mice
Settings: endpoint: median survival time, higher = longer survival
Method in brief: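 Transplantable tumor model; survival or tumor size measured; reported as T/C, treated over vehicle control.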

Measured: T/C

O=C1c2ccccc2C(=O)c2c(NCCNCCO)ccc(NCCNCCO)c21
inactive: dose: 0.25 mg/kg/injection, schedule: Q01DX009 (ip), vehicle: saline with Tween-80 124 % of control | dose: 0.25 mg/kg/injection, schedule: Q01DX009 (ip), vehicle: saline 110 % of control and 111 % of control | dose: 0.5 mg/kg/injection, schedule: Q01DX009 (ip), vehicle: saline with Tween-80 118 % of control | dose: 0.5 mg/kg/injection, schedule: Q01DX009 (ip), vehicle: saline 118 % of control | dose: 1.0 mg/kg/injection, schedule: Q01DX009 (ip), vehicle: other 124 % of control | dose: 2.0 mg/kg/injection, schedule: Q03HX024 (ip), vehicle: saline 123 % of control | dose: 4.0 mg/kg/injection, schedule: Q01DX005 (iv), vehicle: saline 106 % of control | dose: 4.0 mg/kg/injection, schedule: Q01DX009 (sc), vehicle: acid diluted with saline 121 % of control | dose: 4.0 mg/kg/injection, schedule: Q01DX009 (sc), vehicle: saline 108 % of control | dose: 8.0 mg/kg/injection, schedule: Q01DX005 (iv), vehicle: saline 106 % of control | dose: 8.0 mg/kg/injection, schedule: Q01DX009 (oral), vehicle: acid diluted with saline 98 % of control | dose: 8.0 mg/kg/injection, schedule: Q01DX009 (sc), vehicle: acid diluted with saline 111 % of control | dose: 8.0 mg/kg/injection, schedule: Q01DX009 (sc), vehicle: saline 123 % of control | dose: 8.0 mg/kg/injection, schedule: Q08DX002 (ip), vehicle: saline 119 % of control | dose: 16.0 mg/kg/injection, schedule: Q01DX001 (oral), vehicle: saline 108 % of control | dose: 16.0 mg/kg/injection, schedule: Q01DX001 (sc), vehicle: acid diluted with saline 102 % of control | dose: 16.0 mg/kg/injection, schedule: Q01DX005 (iv), vehicle: saline 116 % of control | dose: 16.0 mg/kg/injection, schedule: Q01DX009 (oral), vehicle: acid diluted with saline 109 % of control | dose: 16.0 mg/kg/injection, schedule: Q01DX009 (oral), vehicle: saline 101 % of control | dose: 16.0 mg/kg/injection, schedule: Q03HX008 (ip), vehicle: saline 117 % of control | dose: 16.0 mg/kg/injection, schedule: Q03HX016 (ip), vehicle: acid diluted with saline 98 % of control | dose: 16.0 mg/kg/injection, schedule: Q08DX002 (ip), vehicle: saline 112 % of control | dose: 18.75 mg/kg/injection, schedule: Q01DX001 (ip), vehicle: Klucel (hydroxypropylcellulose) (HPC) 111 % of control | dose: 32.0 mg/kg/injection, schedule: Q01DX001 (oral), vehicle: saline 106 % of control | dose: 32.0 mg/kg/injection, schedule: Q01DX001 (sc), vehicle: acid diluted with saline 100 % of control | dose: 32.0 mg/kg/injection, schedule: Q01DX005 (iv), vehicle: saline 119 % of control | dose: 32.0 mg/kg/injection, schedule: Q01DX009 (oral), vehicle: acid diluted with saline 113 % of control | dose: 32.0 mg/kg/injection, schedule: Q01DX009 (oral), vehicle: saline 112 % of control | dose: 32.0 mg/kg/injection, schedule: Q01DX009 (sc), vehicle: acid diluted with saline 114 % of control | dose: 32.0 mg/kg/injection, schedule: Q01DX009 (sc), vehicle: saline 100 % of control | dose: 64.0 mg/kg/injection, schedule: Q01DX001 (oral), vehicle: acid diluted with saline 109 % of control | dose: 64.0 mg/kg/injection, schedule: Q01DX001 (oral), vehicle: saline 116 % of control | dose: 64.0 mg/kg/injection, schedule: Q01DX001 (sc), vehicle: acid diluted with saline 114 % of control | dose: 64.0 mg/kg/injection, schedule: Q01DX009 (oral), vehicle: acid diluted with saline 100 % of control | dose: 64.0 mg/kg/injection, schedule: Q01DX009 (oral), vehicle: saline 112 % of control | dose: 64.0 mg/kg/injection, schedule: Q02DX009 (ip), vehicle: saline 89 % of control | dose: 128.0 mg/kg/injection, schedule: Q01DX001 (oral), vehicle: acid diluted with saline 105 % of control | dose: 128.0 mg/kg/injection, schedule: Q01DX001 (oral), vehicle: saline 106 % of control | dose: 128.0 mg/kg/injection, schedule: Q01DX009 (oral), vehicle: acid diluted with saline 115 % of control | dose: 128.0 mg/kg/injection, schedule: Q01DX009 (oral), vehicle: saline 112 % of control | dose: 128.0 mg/kg/injection, schedule: Q08DX002 (ip), vehicle: saline 106 % of control | dose: 256.0 mg/kg/injection, schedule: Q01DX001 (oral), vehicle: acid diluted with saline 96 % of control | dose: 256.0 mg/kg/injection, schedule: Q01DX001 (oral), vehicle: saline 116 % of control | dose: 512.0 mg/kg/injection, schedule: Q01DX001 (oral), vehicle: saline 97 % of control
active: dose: 1.0 mg/kg/injection, schedule: Q01DX009 (ip), vehicle: saline with Tween-80 152 % of control | dose: 1.0 mg/kg/injection, schedule: Q02DX009 (ip), vehicle: saline 159 % of control | dose: 1.0 mg/kg/injection, schedule: Q03HX016 (ip), vehicle: acid diluted with saline 161 % of control | dose: 1.0 mg/kg/injection, schedule: Q03HX024 (ip), vehicle: acid diluted with saline 167 % of control | dose: 2.0 mg/kg/injection, schedule: Q01DX009 (ip), vehicle: acid diluted with saline 183 % of control and 208 % of control | dose: 2.0 mg/kg/injection, schedule: Q01DX009 (ip), vehicle: saline with Tween-80 175 % of control | dose: 2.0 mg/kg/injection, schedule: Q01DX009 (ip), vehicle: water 168 % of control | dose: 2.0 mg/kg/injection, schedule: Q03HX008 (ip), vehicle: acid diluted with saline 157 % of control | dose: 2.0 mg/kg/injection, schedule: Q03HX016 (ip), vehicle: acid diluted with saline 202 % of control | dose: 2.0 mg/kg/injection, schedule: Q03HX024 (ip), vehicle: acid diluted with saline 209 % of control | dose: 4.0 mg/kg/injection, schedule: Q01DX005 (ip), vehicle: saline 151 % of control | dose: 4.0 mg/kg/injection, schedule: Q01DX009 (ip), vehicle: Klucel (hydroxypropylcellulose) (HPC) 180 % of control | dose: 4.0 mg/kg/injection, schedule: Q01DX009 (ip), vehicle: saline with Tween-80 154 % of control and 188 % of control | dose: 4.0 mg/kg/injection, schedule: Q01DX009 (ip), vehicle: water 169 % of control and 172 % of control and 211 % of control | dose: 4.0 mg/kg/injection, schedule: Q02DX009 (ip), vehicle: saline 170 % of control and 188 % of control | dose: 4.0 mg/kg/injection, schedule: Q03HX008 (ip), vehicle: acid diluted with saline 206 % of control | dose: 4.0 mg/kg/injection, schedule: Q03HX016 (ip), vehicle: acid diluted with saline 204 % of control | dose: 4.0 mg/kg/injection, schedule: Q03HX024 (ip), vehicle: saline 207 % of control | dose: 8.0 mg/kg/injection, schedule: Q01DX005 (ip), vehicle: acid diluted with saline 192 % of control | dose: 8.0 mg/kg/injection, schedule: Q01DX009 (ip), vehicle: Klucel (hydroxypropylcellulose) (HPC) 158 % of control | dose: 8.0 mg/kg/injection, schedule: Q01DX009 (ip), vehicle: other 180 % of control | dose: 8.0 mg/kg/injection, schedule: Q01DX009 (ip), vehicle: saline with Tween-80 159 % of control and 190 % of control | dose: 8.0 mg/kg/injection, schedule: Q02DX009 (ip), vehicle: saline 191 % of control | dose: 8.0 mg/kg/injection, schedule: Q03HX008 (ip), vehicle: acid diluted with saline 192 % of control | dose: 8.0 mg/kg/injection, schedule: Q04DX003 (ip), vehicle: acid diluted with saline 195 % of control | dose: 8.0 mg/kg/injection, schedule: Q08DX002 (ip), vehicle: acid diluted with saline 178 % of control | dose: 16.0 mg/kg/injection, schedule: Q01DX001 (ip), vehicle: acid diluted with saline 156 % of control | dose: 16.0 mg/kg/injection, schedule: Q01DX005 (ip), vehicle: saline 166 % of control | dose: 16.0 mg/kg/injection, schedule: Q01DX009 (ip), vehicle: Klucel (hydroxypropylcellulose) (HPC) 173 % of control | dose: 16.0 mg/kg/injection, schedule: Q01DX009 (ip), vehicle: saline with Tween-80 186 % of control | dose: 16.0 mg/kg/injection, schedule: Q01DX009 (sc), vehicle: acid diluted with saline 156 % of control | dose: 16.0 mg/kg/injection, schedule: Q02DX009 (ip), vehicle: saline 180 % of control | dose: 16.0 mg/kg/injection, schedule: Q03HX008 (ip), vehicle: acid diluted with saline 209 % of control | dose: 16.0 mg/kg/injection, schedule: Q04DX003 (ip), vehicle: acid diluted with saline 204 % of control | dose: 16.0 mg/kg/injection, schedule: Q08DX002 (ip), vehicle: acid diluted with saline 173 % of control | dose: 32.0 mg/kg/injection, schedule: Q01DX001 (ip), vehicle: acid diluted with saline 157 % of control | dose: 32.0 mg/kg/injection, schedule: Q01DX001 (ip), vehicle: saline 157 % of control | dose: 32.0 mg/kg/injection, schedule: Q01DX005 (ip), vehicle: saline 181 % of control | dose: 32.0 mg/kg/injection, schedule: Q02DX009 (ip), vehicle: saline 196 % of control | dose: 32.0 mg/kg/injection, schedule: Q04DX003 (ip), vehicle: saline 153 % of control | dose: 32.0 mg/kg/injection, schedule: Q08DX002 (ip), vehicle: acid diluted with saline 196 % of control | dose: 50.0 mg/kg/injection, schedule: Q01DX001 (ip), vehicle: water 151 % of control | dose: 64.0 mg/kg/injection, schedule: Q01DX001 (ip), vehicle: acid diluted with saline 154 % of control | dose: 64.0 mg/kg/injection, schedule: Q01DX001 (ip), vehicle: saline 151 % of control | dose: 64.0 mg/kg/injection, schedule: Q04DX003 (ip), vehicle: saline 213 % of control | dose: 64.0 mg/kg/injection, schedule: Q08DX002 (ip), vehicle: acid diluted with saline 178 % of control | dose: 64.0 mg/kg/injection, schedule: Q08DX002 (ip), vehicle: saline 179 % of control
